Consider three compounds from US20120329758A1, “Combined Treatment Utilizing VB-201” (priority 2010, published 2012).

A short description of data set [1]: Blood chemistry assay (SGPT, alkaline phosphatase) in rabbits fed a high-cholesterol diet. Format: in vivo, male New Zealand White rabbits. The following applies: 14 weeks of high-cholesterol diet, atorvastatin 2.5 mg/kg, VB-201 4 mg/kg. Here is the method:
Blood chemistry was assayed by the Pathological Chemistry Institute Laboratory (Sheba Medical Center, Israel) using an AU2700® spectrophotometer (Olympus) and the appropriate Olympus reagents. The parameters evaluated were urea, creatinine, glucose, potassium, sodium, chloride, total calcium, phopshorus, uric acid, bilirubin, SGOT, SGPT, LDH, total CPK, CPK-MB, CK-MB %, total protein, albumin, globulin, alkaline phosphatase and osmolality levels. Atherosclerosis was induced in male New Zealand White rabbits (hsdIF:NZ, Harlan) by supplying the rabbits with a high-cholesterol diet (0.5% w/w cholesterol) for 14 weeks. The rabbits were assigned to four treatment groups (7 or 8 animals per group): a) atorvastatin treatment; b) VB-201 treatment; c) combined atorvastatin+VB-201 treatment; and d) PBS with 0.5% ethanol (control group). […] VB-201 was administered daily (5 days per week) by oral gavage of the stock solution (2.7 mg/ml) at volume of 1.5 ml per kg body weight, corresponding to a dose of approximately 4 mg/kg. At the end of 14 weeks, the rabbits were sacrificed, and the effects of the treatments were evaluated by measurement of aortic lesion areas and plasma cholesterol levels, and routine blood chemistry assessment (as described hereinabove).

The subject of data set [2] is atherosclerosis (aortic lesion area) in rabbits fed a high-cholesterol diet. As to the kind of experiment: Measurement of aortic lesion area in rabbits fed a high-cholesterol diet. Format: in vivo, male New Zealand White rabbits. Conditions: high-cholesterol diet 14 weeks, atorvastatin approx. 2.5 mg/kg daily in diet, VB-201 approx. 4 mg/kg oral gavage 5 days per week, FIG. 1. Here is the method:
Aortas were collected upon sacrifice. Lesion area was determined by scanning the intensity of Sudan IV stain adhering to the lesioned tissue, using Image-Pro Plus software (Media Cybernetics). Lesion areas were calculated in three different sections of the aorta (aortic arch, thoracic aorta and abdominal aorta). The total aortic lesion area (sum of lesion areas in all 3 sections) was calculated as a percentage of the sum of all 3 section areas.
Atherosclerosis was induced in male New Zealand White rabbits (hsdIF:NZ, Harlan) by supplying the rabbits with a high-cholesterol diet (0.5% w/w cholesterol) for 14 weeks. The rabbits were assigned to four treatment groups (7 or 8 animals per group): a) atorvastatin treatment; b) VB-201 treatment; c) combined atorvastatin+VB-201 treatment; and d) PBS with 0.5% ethanol (control group). […]
(§1) At the end of 14 weeks, the rabbits were sacrificed, and the effects of the treatments were evaluated by measurement of aortic lesion areas and plasma cholesterol levels, and routine blood chemistry assessment (as described hereinabove). Plasma cholesterol levels were also determined after 5 weeks of the high-cholesterol diet.

A short description of data set [3]: Plasma cholesterol assay in rabbits fed a high-cholesterol diet. Format: in vivo, male New Zealand White rabbits. The following applies: for Average cholesterol level / Average cholesterol level (% of control): plasma, atorvastatin 2.5 mg/kg, VB-201 4 mg/kg; for effect on cholesterol levels (in words): rabbits on high-cholesterol diet, atorvastatin 2.5 mg/kg (alone or with VB-201), VB-201 4 mg/kg per se. On the procedure: Plasma cholesterol levels were determined in the Bert W. Strassburger Lipid Center (Sheba Medical Center, Israel) using a Cobas Mira analyzer (Roche) and cholesterol reagent (Roche/Hitach).
Atherosclerosis was induced in male New Zealand White rabbits (hsdIF:NZ, Harlan) by supplying the rabbits with a high-cholesterol diet (0.5% w/w cholesterol) for 14 weeks. The rabbits were assigned to four treatment groups (7 or 8 animals per group): a) atorvastatin treatment; b) VB-201 treatment; c) combined atorvastatin+VB-201 treatment; and d) PBS with 0.5% ethanol (control group).
Atorvastatin was administered by supplementing the diet with 50 mg/kg atorvastatin, which corresponds to a daily dose of approximately 2.5 mg/kg, based on a daily food consumption of approximately 125 grams per rabbit and an average weight of 2.5 kg.
VB-201 was administered daily (5 days per week) by oral gavage of the stock solution (2.7 mg/ml) at volume of 1.5 ml per kg body weight, corresponding to a dose of approximately 4 mg/kg.
as §1

For another data set, the system named is C-reactive protein (CRP). The following applies: healthy humans; previously shown; cited from earlier work.
In data set [4] the test system is DSS-induced colitis in mice. In words: Dextran sulfate sodium (DSS)-induced colitis model. Conditions: for body weight loss: DSS colitis mice, VB-201 oral daily; for body weight loss / disease activity index (DAI), chronic phase / disease activity index (DAI), acute phase: glatiramer acetate 2 mg per mouse s.c. daily; for disease activity index (DAI), chronic phase: after about day 20; for disease activity index (DAI), chronic phase / disease activity index (DAI), acute phase: VB-201 0.04, 0.4 or 4 mg/kg oral daily, FIG. 3; for disease activity index (DAI), acute phase: until about day 20. Format: in vivo. On the procedure:
Colitis was induced in mice with dextran sulfate sodium (DSS), to serve as a model of inflammatory disorders. A solution of 2% DSS was administered in the drinking water of the mice on days 0-4, 19-23 and 32-36 of the experiment.
VB-201 was administered by oral gavage at daily doses of 0.04, 0.4 or 4 mg/kg, beginning 5 days prior to disease induction (i.e., first day of DSS administration). In an alternative treatment, 2 mg per mouse of glatiramer acetate was administered subcutaneously, daily from day 0. Each treatment group included 20 mice. As a negative control, 15 mice were administered vehicle (PBS with 0.5% ethanol) by gavage beginning 5 days prior to disease induction. […], 8 mice were administered vehicle (PBS with 0.5% ethanol) by gavage beginning 5 days prior to disease induction, without treatment with DSS, and 5 mice received no treatment at all. Mice were sacrificed on day 39, and their colon length and weight was determined.
Mice were scored according to a disease activity index (DAI), based on the average score for weight loss, stool consistency and bleeding, as follows: […]

Where [5] appears, read: 5 weeks of high-cholesterol diet.
Where [6] appears, read: 14 weeks of high-cholesterol diet.
[7] abbreviates: day 39, VB-201 at all tested doses (0.04, 0.4, 4 mg/kg), glatiramer acetate 2 mg per mouse, FIG. 4.
The mark [8] stands for this setting: glatiramer acetate 2 mg per mouse s.c. daily from day 0, FIG. 2.

For the compound `CC(C)c1c(C(=O)Nc2ccccc2)c(-c2ccccc2)c(-c2ccc(F)cc2)n1CC[C@@H](O)C[C@@H](O)CC(=O)O` [Atorvastatin], in data set [1], the “Average Alkaline Phosphatase level” value is recorded as 104.63 IU/L, the “Average Alkaline Phosphatase level (% of control)” value is 174 % of control, the “Average SGPT level” value came out at 110.63 IU/L and the “Average SGPT level (% of control)” value is on record as 235 % of control. In data set [1] (rabbits), the “effect on SGPT and alkaline phosphatase levels (in words)” value is on record as “increased”. The “reduction of aortic lesion areas relative to the control group” value in data set [2] was 33%. Further, in data set [3] (setting [5]), the Average cholesterol level was 580 mg/dL and the “Average cholesterol level (% of control)” value is given as 56 % of control. Moreover, in data set [3] (setting [6]), the Average cholesterol level amounted to 1082 mg/dL and the “Average cholesterol level (% of control)” value is reported as 64 % of control. Besides, the “effect on cholesterol levels (in words)” value in data set [3] was “reduced cholesterol levels considerably”.
On to `CCCCCCCCCCCCCCCCOCC(COP(=O)([O-])OCC[N+](C)(C)C)OCCCCC(=O)O` (stereo not shown) [VB-201, 1-hexadecyl-2-(4′-carboxybutyl)-glycerol-3-phosphocholine], for which the “C-reactive protein (CRP) levels, a marker for inflammation” value with C-reactive protein (CRP) is “effective at reducing”. The “reduction of aortic lesion areas relative to the control group” value in data set [2] came to 39%. For the same compound, in data set [3] (setting [5]), the Average cholesterol level worked out at 1303 mg/dL and the “Average cholesterol level (% of control)” value was 126 % of control. Moreover, in data set [3] (setting [6]), the Average cholesterol level came out at 2195 mg/dL and the “Average cholesterol level (% of control)” value is on record as 131 % of control. In addition, the “effect on cholesterol levels (in words)” value in data set [3] was “did not reduce cholesterol levels”. In addition, in data set [4], the body weight loss result is on record as “reduced body weight loss over the period of days 17-24”; the “disease activity index (DAI), chronic phase” value is listed as “reduced the DAI”; the “disease activity index (DAI), acute phase” value is on record as “without reducing the DM”. Besides, the “survival at day 39” value in data set [4] (VB-201 at all tested doses (0.04, 0.4 or 4 mg/kg daily oral gavage), FIG. 2) is recorded as “at least 80%”. For the same compound, the “effect on colon length, compared between doses” value in data set [4] (day 39, 0.04 mg/kg VB-201 versus 0.4 and 4 mg/kg, FIG. 4) is on record as “more effective than the higher doses”. Also, in data set [4] (setting [7]), the “DSS-induced shortening of the colon length” value is “partially reversed”. Also, the “DSS-induced increase in the colon weight/length ratios” value in data set [4] (day 39, VB-201 at all tested doses (0.04, 0.4, 4 mg/kg), glatiramer acetate 2 mg per mouse, FIG. 5) is reported as “partially reversed”.
In the case of Glatiramer acetate, in data set [4], the body weight loss entry was “reduced body weight loss over the period of days 8-22”; the “disease activity index (DAI), chronic phase” value is “did not reduce the DAI”; the “disease activity index (DAI), acute phase” value was “reduced the DAI”. For the same compound, the “DSS-induced shortening of the colon length” value in data set [4] (setting [7]) is listed as “not effective”. Also, in data set [4] (setting [8]), the “survival by day 39 compared with control mice” value was “below that of control mice” and the “survival until day 23” value stood at 100%.
